Measured values reported in the NIST ThermoML archive (doi:10.1021/acs.jced.7b00201).

Experiment: xn = mol fraction of the nth substance listed
Settings: 100 kPa, Liquid; for viscosity: Falling or rolling sphere viscometry; for mass density: Vibrating tube method

OCC1CC1 [cyclopropylmethanol] + CCCCCCCCCCCC
Settings	mass density [kg/m3]	viscosity [mPa·s]
293.15 K, x1 = 0.1039	–	1.484
293.15 K, x1 = 0.1135	754.8	–
293.15 K, x1 = 0.2032	–	1.521
293.15 K, x1 = 0.2127	761.38	–
293.15 K, x1 = 0.3022	–	1.605
293.15 K, x1 = 0.3059	768.71	–
293.15 K, x1 = 0.3804	775.49	–
293.15 K, x1 = 0.3997	–	1.683
293.15 K, x1 = 0.4993	–	1.884
293.15 K, x1 = 0.5067	789.46	–
293.15 K, x1 = 0.5994	–	2.084
293.15 K, x1 = 0.6019	802.62	–
293.15 K, x1 = 0.7	–	2.335
293.15 K, x1 = 0.7011	819.64	–
293.15 K, x1 = 0.7921	839.53	–
293.15 K, x1 = 0.797	–	2.671
293.15 K, x1 = 0.8991	870.68	–
293.15 K, x1 = 0.9004	–	3.205
293.15 K, x1 = 1	912.99	4.029
298.15 K, x1 = 0.1039	–	1.354
298.15 K, x1 = 0.1135	751.08	–
298.15 K, x1 = 0.2032	–	1.382
298.15 K, x1 = 0.2127	757.63	–
298.15 K, x1 = 0.3022	–	1.455
298.15 K, x1 = 0.3059	764.92	–
298.15 K, x1 = 0.3804	771.68	–
298.15 K, x1 = 0.3997	–	1.52
298.15 K, x1 = 0.4993	–	1.688
298.15 K, x1 = 0.5067	785.59	–
298.15 K, x1 = 0.5994	–	1.854
298.15 K, x1 = 0.6019	798.72	–
298.15 K, x1 = 0.7	–	2.068
298.15 K, x1 = 0.7011	815.7	–
298.15 K, x1 = 0.7921	835.57	–
298.15 K, x1 = 0.797	–	2.35
298.15 K, x1 = 0.8991	866.69	–
298.15 K, x1 = 0.9004	–	2.801
298.15 K, x1 = 1	908.94	3.485
303.15 K, x1 = 0.1039	–	1.241
303.15 K, x1 = 0.1135	747.35	–
303.15 K, x1 = 0.2032	–	1.276
303.15 K, x1 = 0.2127	753.86	–
303.15 K, x1 = 0.3022	–	1.325
303.15 K, x1 = 0.3059	761.1	–
303.15 K, x1 = 0.3804	767.83	–
303.15 K, x1 = 0.3997	–	1.38
303.15 K, x1 = 0.4993	–	1.521
303.15 K, x1 = 0.5067	781.69	–
303.15 K, x1 = 0.5994	–	1.662
303.15 K, x1 = 0.6019	794.79	–
303.15 K, x1 = 0.7	–	1.842
303.15 K, x1 = 0.7011	811.73	–
303.15 K, x1 = 0.7921	831.56	–
303.15 K, x1 = 0.797	–	2.081
303.15 K, x1 = 0.8991	862.66	–
303.15 K, x1 = 0.9004	–	2.463
303.15 K, x1 = 1	904.85	3.037
308.15 K, x1 = 0.1039	–	1.142
308.15 K, x1 = 0.1135	743.6	–
308.15 K, x1 = 0.2032	–	1.171
308.15 K, x1 = 0.2127	750.06	–
308.15 K, x1 = 0.3022	–	1.213
308.15 K, x1 = 0.3059	757.26	–
308.15 K, x1 = 0.3804	763.96	–
308.15 K, x1 = 0.3997	–	1.258
308.15 K, x1 = 0.4993	–	1.378
308.15 K, x1 = 0.5067	777.76	–
308.15 K, x1 = 0.5994	–	1.497
308.15 K, x1 = 0.6019	790.82	–
308.15 K, x1 = 0.7	–	1.65
308.15 K, x1 = 0.7011	807.72	–
308.15 K, x1 = 0.7921	827.52	–
308.15 K, x1 = 0.797	–	1.853
308.15 K, x1 = 0.8991	858.59	–
308.15 K, x1 = 0.9004	–	2.176
308.15 K, x1 = 1	900.74	2.661
313.15 K, x1 = 0.1039	–	1.055
313.15 K, x1 = 0.1135	739.84	–
313.15 K, x1 = 0.2032	–	1.079
313.15 K, x1 = 0.2127	746.24	–
313.15 K, x1 = 0.3022	–	1.114
313.15 K, x1 = 0.3059	753.4	–
313.15 K, x1 = 0.3804	760.06	–
313.15 K, x1 = 0.3997	–	1.153
313.15 K, x1 = 0.4993	–	1.254
313.15 K, x1 = 0.5067	773.81	–
313.15 K, x1 = 0.5994	–	1.355
313.15 K, x1 = 0.6019	786.82	–
313.15 K, x1 = 0.7	–	1.485
313.15 K, x1 = 0.7011	803.68	–
313.15 K, x1 = 0.7921	823.45	–
313.15 K, x1 = 0.797	–	1.658
313.15 K, x1 = 0.8991	854.48	–
313.15 K, x1 = 0.9004	–	1.933
313.15 K, x1 = 1	896.58	2.344
318.15 K, x1 = 0.1039	–	0.977
318.15 K, x1 = 0.1135	736.06	–
318.15 K, x1 = 0.2032	–	0.998
318.15 K, x1 = 0.2127	742.4	–
318.15 K, x1 = 0.3022	–	1.028
318.15 K, x1 = 0.3059	749.51	–
318.15 K, x1 = 0.3804	756.13	–
318.15 K, x1 = 0.3997	–	1.06
318.15 K, x1 = 0.4993	–	1.146
318.15 K, x1 = 0.5067	769.82	–
318.15 K, x1 = 0.5994	–	1.232
318.15 K, x1 = 0.6019	782.78	–
318.15 K, x1 = 0.7	–	1.343
318.15 K, x1 = 0.7011	799.61	–
318.15 K, x1 = 0.7921	819.33	–
318.15 K, x1 = 0.797	–	1.491
318.15 K, x1 = 0.8991	850.32	–
318.15 K, x1 = 0.9004	–	1.725
318.15 K, x1 = 1	892.38	2.074
323.15 K, x1 = 0.1039	–	0.909
323.15 K, x1 = 0.1135	732.26	–
323.15 K, x1 = 0.2032	–	0.927
323.15 K, x1 = 0.2127	738.54	–
323.15 K, x1 = 0.3022	–	0.952
323.15 K, x1 = 0.3059	745.6	–
323.15 K, x1 = 0.3804	752.18	–
323.15 K, x1 = 0.3997	–	0.979
323.15 K, x1 = 0.4993	–	1.052
323.15 K, x1 = 0.5067	765.79	–
323.15 K, x1 = 0.5994	–	1.125
323.15 K, x1 = 0.6019	778.71	–
323.15 K, x1 = 0.7	–	1.22
323.15 K, x1 = 0.7011	795.48	–
323.15 K, x1 = 0.7921	815.17	–
323.15 K, x1 = 0.797	–	1.346
323.15 K, x1 = 0.8991	846.12	–
323.15 K, x1 = 0.9004	–	1.546
323.15 K, x1 = 1	888.13	1.843
328.15 K, x1 = 0.1039	–	0.849
328.15 K, x1 = 0.1135	728.45	–
328.15 K, x1 = 0.2032	–	0.864
328.15 K, x1 = 0.2127	734.66	–
328.15 K, x1 = 0.3022	–	0.884
328.15 K, x1 = 0.3059	741.65	–
328.15 K, x1 = 0.3804	748.19	–
328.15 K, x1 = 0.3997	–	0.907
328.15 K, x1 = 0.4993	–	0.969
328.15 K, x1 = 0.5067	761.73	–
328.15 K, x1 = 0.5994	–	1.031
328.15 K, x1 = 0.6019	774.6	–
328.15 K, x1 = 0.7	–	1.112
328.15 K, x1 = 0.7011	791.32	–
328.15 K, x1 = 0.7921	810.96	–
328.15 K, x1 = 0.797	–	1.221
328.15 K, x1 = 0.8991	841.86	–
328.15 K, x1 = 0.9004	–	1.391
328.15 K, x1 = 1	883.84	1.646
333.15 K, x1 = 0.1039	–	0.794
333.15 K, x1 = 0.1135	724.62	–
333.15 K, x1 = 0.2032	–	0.806
333.15 K, x1 = 0.2127	730.75	–
333.15 K, x1 = 0.3022	–	0.823
333.15 K, x1 = 0.3059	737.68	–
333.15 K, x1 = 0.3804	744.17	–
333.15 K, x1 = 0.3997	–	0.843
333.15 K, x1 = 0.4993	–	0.896
333.15 K, x1 = 0.5067	757.64	–
333.15 K, x1 = 0.5994	–	0.948
333.15 K, x1 = 0.6019	770.44	–
333.15 K, x1 = 0.7	–	1.018
333.15 K, x1 = 0.7011	787.11	–
333.15 K, x1 = 0.7921	806.7	–
333.15 K, x1 = 0.797	–	1.111
333.15 K, x1 = 0.8991	837.56	–
333.15 K, x1 = 0.9004	–	1.257
333.15 K, x1 = 1	879.49	1.476
338.15 K, x1 = 0.1039	–	0.745
338.15 K, x1 = 0.1135	720.77	–
338.15 K, x1 = 0.2032	–	0.755
338.15 K, x1 = 0.2127	726.81	–
338.15 K, x1 = 0.3022	–	0.769
338.15 K, x1 = 0.3059	733.68	–
338.15 K, x1 = 0.3804	740.12	–
338.15 K, x1 = 0.3997	–	0.785
338.15 K, x1 = 0.4993	–	0.831
338.15 K, x1 = 0.5067	753.5	–
338.15 K, x1 = 0.5994	–	0.875
338.15 K, x1 = 0.6019	766.25	–
338.15 K, x1 = 0.7	–	0.935
338.15 K, x1 = 0.7011	782.85	–
338.15 K, x1 = 0.7921	802.39	–
338.15 K, x1 = 0.797	–	1.015
338.15 K, x1 = 0.8991	833.19	–
338.15 K, x1 = 0.9004	–	1.141
338.15 K, x1 = 1	875.07	1.328
343.15 K, x1 = 0.1039	–	0.702
343.15 K, x1 = 0.1135	716.91	–
343.15 K, x1 = 0.2032	–	0.709
343.15 K, x1 = 0.2127	722.85	–
343.15 K, x1 = 0.3022	–	0.721
343.15 K, x1 = 0.3059	729.64	–
343.15 K, x1 = 0.3804	736.03	–
343.15 K, x1 = 0.3997	–	0.734
343.15 K, x1 = 0.4993	–	0.773
343.15 K, x1 = 0.5067	749.32	–
343.15 K, x1 = 0.5994	–	0.811
343.15 K, x1 = 0.6019	762	–
343.15 K, x1 = 0.7	–	0.862
343.15 K, x1 = 0.7011	778.54	–
343.15 K, x1 = 0.7921	798.03	–
343.15 K, x1 = 0.797	–	0.931
343.15 K, x1 = 0.8991	828.77	–
343.15 K, x1 = 0.9004	–	1.039
343.15 K, x1 = 1	870.62	1.201
